Our source for the remaining activity values is PMC8286840, “Identifying SARS-CoV-2 antiviral compounds by screening for small molecule inhibitors of Nsp3 papain-like protease” (Biochemical Journal, 2021).

SMILES strings stand for the structures. Structures can show the parent of a compound that is named as a salt. Where two headings read alike, the source gives them in different places.

The target in assay [1] is T1, SARS-CoV-2 PLpro (nsp3 1564–1878) (Severe acute respiratory syndrome coronavirus 2, UniProt P0DTD1). The experiment in a line: biochemical. Conditions: low concentration screen, read-out: % of control remaining. Also noted: FRET-quenched peptide (Pro3) cleavage by PLpro, 10 min pre-incubation, slope over 20 min, normalised to no-compound control.
In assay [2] the target is T1, SARS-CoV-2 PLpro (nsp3 1564–1878). The assay is described as follows: biochemical. Also noted: FRET-quenched peptide (Pro3) cleavage by PLpro, 10 min pre-incubation, slope over 20 min, normalised to no-compound control. The note with it: high concentration screen, read-out: % of control remaining.

Turning to `COc1cc(C(C)=O)cc(-c2cc(C(C)=O)cc(OC)c2O)c1O` [1,1'-(6,6'-dihydroxy-5,5'-dimethoxy-[1,1'-biphenyl]-3,3'-diyl)bis(ethan-1-one)], the remaining activity at 1.25 µM in assay [1] (Well no.=5981) stood at 101%. Besides, the remaining activity at 3.75 µM in assay [2] (Well no.=5981) was found to be 96.6%.

As to `COc1ccc2c(c1)C(c1ccc(F)cc1)=C(CN1CCCC1)CO2` [AX-024 hydrochloride], the remaining activity at 1.25 µM in assay [1] (Well no.=6930) is 97%. In addition, the remaining activity at 3.75 µM in assay [2] (Well no.=6930) is 95.2%.

Turning to `C=CC[C@]1(O)CC[C@H]2[C@@H]3CCC4=CC(=O)CCC4=C3C=C[C@@]21C` [Altrenogest], in assay [1] (Well no.=5020), the remaining activity at 1.25 µM worked out at 94.3%. Further, the remaining activity at 3.75 µM in assay [2] (Well no.=5020) turned out to be 93.9%.

Turning to `Nc1nc(Cl)nc2c1ncn2[C@@H]1O[C@H](CO)[C@@H](O)[C@@H]1F` [Clofarabine], the remaining activity at 1.25 µM in assay [1] (Well no.=1927) turned out to be 103%; in assay [1] (Well no.=8004) it was 98.8%. In addition, the values for the remaining activity at 3.75 µM in assay [2] (Well no.=1927) and in assay [2] (Well no.=8004) were 103% and 97.4%, respectively.

As for `Cc1c(-c2ccc(O)cc2)n(Cc2ccc(OCCN3CCCCCC3)cc2)c2ccc(O)cc12` [Bazedoxifene HCl], the remaining activity at 1.25 µM in assay [1] (Well no.=5100) amounted to 105%. Moreover, the remaining activity at 3.75 µM in assay [2] (Well no.=5100) was 105%.

As for `CN(C)N(C)C(=O)[C@@]1(Cc2ccccc2)CCCN(C(=O)[C@@H](Cc2c[nH]c3ccccc23)NC(=O)C(C)(C)N)C1` [Anamorelin (hydrochloride)], in assay [1] (Well no.=7291), the remaining activity at 1.25 µM came out at 98.3%. In addition, in assay [2] (Well no.=7291), the remaining activity at 3.75 µM was 97.8%.

Turning to `CCCN1CCCC[C@H]1C(=O)Nc1c(C)cccc1C` [Ropivacaine HCl], the remaining activity at 1.25 µM in assay [1] (Well no.=4698) turned out to be 99%. The remaining activity at 3.75 µM in assay [2] (Well no.=4698) was determined as 96.6%.

In the case of `OC[C@H]1O[C@@H](O[C@@H]2OC=C[C@H]3[C@H](O)[C@@H]4O[C@]4(CO)[C@@H]23)[C@H](O)[C@@H](O)[C@@H]1O` [Catalpol], the remaining activity at 1.25 µM in assay [1] (Well no.=3274) was found to be 102%. Also, the remaining activity at 3.75 µM in assay [2] (Well no.=3274) amounted to 103%.

Consider `CC(C)C[C@H](NC(=O)CNC(=O)[C@H](Cc1ccc(O)cc1)NC(=O)[C@H](CO)NC(=O)[C@H](Cc1c[nH]c2ccccc12)NC(=O)[C@H](Cc1cnc[nH]1)NC(=O)[C@@H]1CCC(=O)N1)C(=O)N[C@@H](CCCNC(=N)N)C(=O)N1CCC[C@H]1C(=O)NCC(N)=O` [Gonadorelin (acetate)], for which, in assay [1] (Well no.=6276), the remaining activity at 1.25 µM was found to be 104%. In assay [2] (Well no.=6276), the remaining activity at 3.75 µM is 106%.

On to `COc1cc2nc(N(C)CCCNC(=O)C3CCCO3)nc(N)c2cc1OC` (stereo not drawn) [Alfuzosin], for which the results for the remaining activity at 1.25 µM in assay [1] (Well no.=1809) and in assay [1] (Well no.=6749) were 98.4% and 100%, respectively. Further, the figures for the remaining activity at 3.75 µM in assay [2] (Well no.=1809) and in assay [2] (Well no.=6749) were 97.8% and 92.3%, respectively.

Take `Cc1cc(C)nc(NC(=S)N2CCN(Cc3ccc(C(F)(F)F)cc3)CC2)c1` [NCT-503]: the remaining activity at 1.25 µM in assay [1] (Well no.=8538) amounted to 96.7%. Also, the remaining activity at 3.75 µM in assay [2] (Well no.=8538) turned out to be 93.8%.

`O=[N+]([O-])/C=C/c1ccc2c(c1)OCO2` [Syk Inhibitor III]: the remaining activity at 1.25 µM in assay [1] (Well no.=2599) worked out at 97.9%. In assay [2] (Well no.=2599), the remaining activity at 3.75 µM was 97.6%.

Consider `CC1=C(C(=O)O)N2C(=O)[C@@H](NC(=O)[C@H](N)c3ccccc3)[C@H]2SC1` [Cephalexin hydrate], for which the remaining activity at 1.25 µM in assay [1] (Well no.=34) was 95.4%. The remaining activity at 3.75 µM in assay [2] (Well no.=34) was determined as 95.3%.

For `O=C(NCC1CCCCN1)c1cc(OCC(F)(F)F)ccc1OCC(F)(F)F` (stereo not drawn) [Flecainide acetate], the remaining activity at 1.25 µM in assay [1] (Well no.=709) turned out to be 98.5%; in assay [1] (Well no.=1649) it was 101%. For the same compound, the remaining activity at 3.75 µM in assay [2] (Well no.=709) came to 98.3%; in assay [2] (Well no.=1649) it was 101%.

Take `COc1ccccc1CNCCCCCCNCCCCCCCCNCCCCCCNCc1ccccc1OC` [Methoctramine tetrahydrochloride]: in assay [1] (Well no.=1085), the remaining activity at 1.25 µM is 102%. In addition, the remaining activity at 3.75 µM in assay [2] (Well no.=1085) was 102%.

With `NS(=O)(=O)c1cc2c(cc1Cl)N=C(CSCc1ccccc1)NS2(=O)=O` [Benzthiazide], in assay [1] (Well no.=8586), the remaining activity at 1.25 µM was 98.4%. For the same compound, in assay [2] (Well no.=8586), the remaining activity at 3.75 µM was found to be 93.6%.

`CCCCCCCCCCCCCCCC(=O)NCC(COP(=O)([O-])OCC[N+](C)(C)C)OCC` (racemic) [rac-2-Ethoxy-3-hexadecanamido-1-propylphosphocholine]: in assay [1] (Well no.=747), the remaining activity at 1.25 µM worked out at 93.3%. In addition, the remaining activity at 3.75 µM in assay [2] (Well no.=747) is 94.6%.

As to `Cn1cc(C2=C(c3ccc(Cl)cc3Cl)C(=O)NC2=O)c2ccccc21` [SB-216763], the remaining activity at 1.25 µM in assay [1] (Well no.=3035) is 87.5%. For the same compound, the remaining activity at 3.75 µM in assay [2] (Well no.=3035) is 89.6%.

In the case of `COc1ccc(-c2cc(=O)c3c(O)cc(O[C@@H]4O[C@H](CO[C@@H]5O[C@@H](C)[C@H](O)[C@@H](O)[C@H]5O)[C@@H](O)[C@H](O)[C@H]4O)cc3o2)cc1O` [Diosmin], the remaining activity at 1.25 µM in assay [1] (Well no.=3597) worked out at 95.3%. Besides, the remaining activity at 3.75 µM in assay [2] (Well no.=3597) is 97.4%.

Turning to `N#CC(C#N)=C(N)/C(C#N)=C/c1ccc(O)cc1` [AG 112], the remaining activity at 1.25 µM in assay [1] (Well no.=2609) turned out to be 97%. The remaining activity at 3.75 µM in assay [2] (Well no.=2609) worked out at 91.5%.

With `CCCCCC(O)/C=C/C=C\CCCCCCCC(=O)O` (racemic), the remaining activity at 1.25 µM in assay [1] (Well no.=4382) was 99.2%. For the same compound, the remaining activity at 3.75 µM in assay [2] (Well no.=4382) was determined as 96.6%.

As for `C#Cc1cccc(Nc2ncnc3cc4c(cc23)OCCOCCOCCO4)c1` [Icotinib], in assay [1] (Well no.=5229), the remaining activity at 1.25 µM turned out to be 92.9%. Moreover, the remaining activity at 3.75 µM in assay [2] (Well no.=5229) came out at 88.7%.

For the compound `O=C(c1ccc(F)cc1)C1CCN(CCn2c(=O)[nH]c3ccccc3c2=O)CC1` [Ketanserin tartrate], the remaining activity at 1.25 µM in assay [1] (Well no.=1515) was determined as 93.9%. Further, in assay [2] (Well no.=1515), the remaining activity at 3.75 µM is 95.4%.

As to `CC1CNC(=O)NC1=O` (stereo not drawn) [Dihydrothymine], the remaining activity at 1.25 µM in assay [1] (Well no.=8392) amounted to 100%. Moreover, the remaining activity at 3.75 µM in assay [2] (Well no.=8392) was determined as 92.8%.

For `Cc1c(Cn2c(C)nc3c(C(=O)O)cc(N4CCOCC4)cc32)cccc1C(F)(F)F` [GSK2636771], the remaining activity at 1.25 µM in assay [1] (Well no.=5178) is 93.1%. In addition, the remaining activity at 3.75 µM in assay [2] (Well no.=5178) was found to be 96.9%.

Take `CNc1cc2c(Nc3cccc(Br)c3)ncnc2cn1` [PD 158780]: the remaining activity at 1.25 µM in assay [1] (Well no.=2499) amounted to 99.1%. Also, the remaining activity at 3.75 µM in assay [2] (Well no.=2499) is 99.3%.

As to `Cc1onc(-c2ccccc2Cl)c1C(=O)N[C@@H]1C(=O)N2[C@@H]1SC(C)(C)[C@@H]2C(=O)O` [Cloxacillin (sodium monohydrate)], the remaining activity at 1.25 µM in assay [1] (Well no.=7556) stood at 101%. Also, the remaining activity at 3.75 µM in assay [2] (Well no.=7556) was 103%.

In the case of `CN(C(=O)OCC1c2ccccc2-c2ccccc21)[C@@H](Cc1ccccc1)C(=O)O` [Fmoc-N-Me-Phe-OH], in assay [1] (Well no.=7888), the remaining activity at 1.25 µM is 101%. The remaining activity at 3.75 µM in assay [2] (Well no.=7888) stood at 102%.

Take `N[C@H]1CONC1=O` [L-Cycloserine]: the remaining activity at 1.25 µM is 104% in assay [1] (Well no.=187) and 103% in assay [1] (Well no.=3185). Besides, the remaining activity at 3.75 µM in assay [2] (Well no.=187) was determined as 101%; in assay [2] (Well no.=3185), 102%.
